Where two headings read alike, the source gives them in different places.
Key:
[1] = test system: human PD-L1 promoter; assay: Inhibitory effect of luciferase expression under control of PD-L1 promoter (A549/PD-L1luc luciferase assay, corrected by total protein); format: cell-based; conditions: A549/PD-L1luc cells, 48±4 hours, RLU corrected by total protein amount, read-out: IC50 (50% inhibition value of luciferase expression)
Description: A reporter vector, pPD-L1luc obtained by the insertion of a human PD-L1 promoter sequence (−2097 to 51) into the multiple cloning site of pGL-3 vector basic (Promega) expresses luciferase under the control of PD-L1 promoter when transfected into animal cells. The pPD-L1luc was transfected into a human non-small cell lung cancer-derived cell line A549 together with pPUR (Clontech) that expresses a puromycin resistance gene (puromycin-N-acetyl-transferase gene), and then cells expressing luciferase which could grow in a puromycin-supplemented medium were selected. The selected cells were named “A549/PD-L1luc cells” and used for luciferase assay as described below.
A test compound was added into a culture liquid containing A549/PD-L1luc cells to observe the influence of the test compound on the amount of luciferase expressed in the cells. Here, it can be considered that when the test compound has a cell cytotoxicity or cell growth inhibitory effect, the total expression level of luciferase is recued due to a reduction in the number of living cells that depends on the concentration of the test compound, and thus the inhibitory effect of luciferase expression under the control of PD-L1 promoter of the test compound cannot be properly evaluated.
A549/PD-L1luc cells were suspended in DMEM containing 10% fetal calf serum (FCS) and 1% penicillin/streptomycin (P/S) (hereinafter, referred to as “DMEM medium”) at 3×10^4 cells/mL to obtain a cell suspension, and the cell suspension was dispensed into each well of a 96-well plate in an amount of 100 μL. In order to perform the assay in triplicate, 3 wells were prepared for control group, and 3 wells were prepared for test compound-treated groups at each concentration. After the dispensation, the 96-well plate was incubated in a CO2 incubator (at 37° C. and 5% CO2) for 24±4 hours.
Each compound of Examples 1 to 6 and Comparative Example 1 was dissolved in dimethylsulfoxide (DMSO) to obtain 50 mmol/L of a compound solution, and the compound solution was stored at −80° C. The compound solution was diluted with DMSO in 2-fold dilution series (usually, in the range of 0.04 mmol/L to 10 mmol/L) to prepare test compound solutions whose concentration varied by two fold for luciferase assay.
Each solution of only DMSO (control) and the diluted test compound (sample) was dispensed into each well containing the cell suspension in an amount of 0.5 μL (200-fold dilution). The solution in each well was mixed with a vortex mixer, and then the 96-well plate was incubated in a CO2 incubator (at 37° C. and 5% CO2) for 48±4 hours. Luciferase Assay Substrate (hereinafter, referred to as “LAS”) supplied in Luciferase Assay Systems (Promega: Cat #E1500) was dissolved in Luciferase Assay Buffer (LAB) to prepare a luciferase reagent. 5× Cell Culture Lysis Reagent (hereinafter, referred to as “CCLR”) was diluted by 5 times with water to prepare 1×CCLR.
After the incubation for 48±4 hours, the medium in each well was completely removed, and 1×CCLR was dispensed into each well in an amount of 50 μL. The plate was allowed to stand at room temperature for 30 minutes, and then 1×CCLR in each well was used as an assay sample for luciferase and total protein amount. The luciferase reagent (100 μL) was placed in a tube for chemiluminescence measurement assay, and the assay sample (20 μL) was added into the tube and mixed with the luciferase reagent to measure chemiluminescence (Relative Luminescence Intensity: RLU) using GloMax 20/20 (Promega).
The above-mentioned assay sample (10 μL) was diluted by 10 times with water (90 μL). Each calibration curve sample was prepared by diluting the BSA solution with water as described in Table 1.
BCA reagent A and BCA reagent B (50:1) supplied in a kit for protein assay were mixed to prepare Working Reagent. Each of the calibration curve samples (Vials I to VI) and the 10-fold diluted assay samples was dispensed into each well of a 96-well plate in an amount of 25 μL, respectively. […]

[2] = test system: PD-L1; assay: Inhibitory effect of PD-L1 expression by cell staining with anti-PD-L1 antibody in IFN-γ-treated THP-1 cells (flow cytometry); format: cell-based; conditions: Homo sapiens, IFN-γ 25 ng/mL, 24±2 hours, subMFI anti-CD274-PC7, read-out: IC50 (50% PD-L1 expression inhibition concentration)
Method: The inhibitory effects of each compound of Examples 1 to 6 on the PD-L1 expression were evaluated according to the following procedures.
(1) Acute monocytic leukemia cell-derived THP-1 cells were suspended in RPMI medium containing 10% FCS and 1% P/S (hereinafter, referred to as “RPMI medium”) at 5×10^5 cells/mL to obtain a cell suspension, and the cell suspension was dispensed into each well of a 6 well-plate in an amount of 3 mL. In order to activate the THP-1 cells and express PD-L1 in the cells, IFN-γ (PEPROTECH, Cat. No. 300-02-100UG, >2e+7 U/mg) was added into each well at a concentration of 25 ng/mL (>500 U/mL). 50 mmol/L of the test compound solution was diluted with the medium (usually, in the range of 0.025 mmol/L to 1 mmol/L), and the diluted solution was added into each well in an amount of 60 μL. The plate was incubated in a CO2 incubator (at 37° C. and 5% CO2) for 24±2 hours. In the control group, only DMSO was added in place of the test compound. (2) A part of the prepared cell culture liquid was collected and the number of cells therein was counted using a cell counter (BIORAD TC-20). The cell culture liquid was centrifuged at 300×g for 5 minutes and the supernatant of the cell culture liquid was removed. The cells were suspended in calcium and magnesium free phosphate buffered saline (PBS−) containing 1% bovine serum albumin (BSA) at a cell concentration of 1 to 2×10^7 cells/mL to prepare a cell suspension. (3) Each cell suspension prepared in the above step (2) were added into a 5 mL tube in an amount of 25 μL. 2 μL of 2% normal mouse serum/PBS− was added into tubes, and the tubes were gently pipetted. The tubes were then allowed to stand at room temperature for 15 minutes. (4) Anti-CD274-PC7 antibody (BECKMAN COULTER, Cat. No. A78884) or mouse IgG1-PC7 antibody (BECKMAN COULTER, 737662) as control was added in each tube in an amount of 10 μL, and the tubes were gently stirred. The tubes were then allowed to stand in the dark on an ice bath for 30 minutes. (5) Foxp3/Transcription Factor Fix/Perm Concentrate (4×) (Cat. No. TNB-1020-L050) (A solution) supplied in FOXP3/Transcription Factor Staining kit (TONBO biosciences) was diluted in Foxp3/Transcription Factor Fix/Perm Diluent (1×) (Cat. No. TNB-1022-L160) (A dilution solution) to prepare a 1×A solution. (6) The 1×A solution was added into each tube in an amount of 1 mL, and the tubes were gently pipetted and stirred. The tubes were then allowed to stand in the dark at room temperature for 30 minutes and centrifuged at 300×g for 5 minutes, and then the supernatants therein were removed. (7) 2 mL of 1% BSA/PBS− was added into each tube and the tubes were gently stirred and centrifuged at 300×g for 5 minutes, and then the supernatants therein were removed. (8) The cells therein were suspended in 0.5 mL of 1% BSA/PBS- and measured with a flow cytometer (Sony: Cell Sorter SH800) within 2 hours. The results were analyzed with a software, FlowJo (Tree Star Inc.). The mean peak fluorescence intensity (MFI) of PD-L1 and mean peak fluorescence intensity of IgG1 were calculated from histograms of the measured fluorescence intensity and number of cells, and the mean fluorescence intensity of IgG1 was subtracted from that of PD-L1 to calculate the subMFI. The experiments were performed in n=2.
The subMFI values of the control cells calculated by the FlowJo analysis and the cells cultured with the addition of the test compounds at each concentration (test cells) were input into an Excel file, and the percentages of the subMFI values of the test cells at each concentration to the average subMFI value of control cells were calculated. The regression line was determined from the percentages of the subMFI values of the test cells at each concentration by the method of least squares to calculate the 50% PD-L1 expression inhibition concentration (IC50 value) of each compound.

Row | Compound | IC50 ([1]; Homo sapiens) [nM] | IC50 [2] [nM] | IC50 [1] [nM]
1 | O=C(Nc1ccc(Oc2ccc(C(F)(F)F)cc2)cc1)C1CCCN(C(=O)c2ccc(O)cc2)C1 (centres unmarked) [Example 1, 1-(4-Hydroxybenzoyl)-N-(4-(4-(trifluoromethyl)phenoxy)phenyl)piperidine-3-carboxamide] | 1300 | 1900 | 
2 | N-(3-(4-Chlorophenoxy)phenyl)-1-(4-hydroxyphenylcarbonyl) piperidine-3-carboxamide [Comparative Example 1, reference compound] |  |  | 14100
3 | O=C(Nc1ccc(Oc2ccc(S(F)(F)(F)(F)F)cc2)cc1)C1CCCN(C(=O)c2ccc(O)cc2)C1 (centres unmarked) [Example 4] | 1200 | 1200 | 

Reference: patent US11591297B2, “Compound having PD-L1 expression-suppressing action” (TOHOKU UNIVERSITY, priority 2019, dated 2023)
